Test results published in patent US7498292B2, “Combinatorial libraries of autoinducer analogs, autoinducer agonists and antagonists, and methods of use thereof” (The Research Foundation of State University of New York, priority 2002, dated 2009).
Entries after “also recorded” stand apart in the source; their conditions may differ.

Tests used:
lasB promoter = settings: 320 μM furanone competing with 0.1 μM AI1; cited from earlier work
LasR [1] = biological target: T1, LasR (Pseudomonas aeruginosa, UniProt P25084); experiment: lasB-lacZ reporter assay, E. coli MG4 (pKDT37); assay type: cell-based, P. aeruginosa; settings: E. coli MG4 (pKDT37), 6 hour incubation
T1 construct: endogenous in cells; host or cells: P. aeruginosa PAO-JP2 (lasI, rhlI) harboring plasI-LVAgfp
T1 sequence (P25084 whole entry): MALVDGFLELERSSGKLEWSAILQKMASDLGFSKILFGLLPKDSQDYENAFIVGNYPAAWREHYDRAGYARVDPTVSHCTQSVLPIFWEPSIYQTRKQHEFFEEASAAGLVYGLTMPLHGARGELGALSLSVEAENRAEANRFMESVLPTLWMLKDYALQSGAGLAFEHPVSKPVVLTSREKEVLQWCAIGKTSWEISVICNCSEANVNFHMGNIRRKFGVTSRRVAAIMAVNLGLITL
Experimental: E. coli strain MG4 (pKDT37) was grown overnight in Supplemented A media with 100 μg/mL ampicillin at 30° C. and diluted 1:100 in the same media. 1 mL of this culture was added to a test tube containing AI1 or 3-oxo-C12-D12 that had been previously aliquoted and dried. Following a 6 hour incubation at 30° C., β-galactosidase activity was determined using standard methods (Platt et al., Assays of the lac operon Enzymes In: Experiments in Molecular Genetics, Cold Spring Harbor Laboratory Press, Cold Spring Harbor, N.Y., pp. 352-355 (1972), which is hereby incorporated by reference in its entirety).
One of the new agonist structures identified from the library, D12, is 2-aminocyclohexanol (FIG. 5B). […] 3-oxo-C12-D12, containing the natural side chain, was synthesized in solution phase, and tested with both the lasI-gfp reporter as well as a lasB-lacZ reporter in Escherichia coli. E. coli strain MG4 harboring plasmid pKDT37 expresses lasR and contains a lacZ reporter gene controlled by a LasR-AI1 inducible lasB promoter (Passador et al., J. Bacteriol. 178:5995-6000 (1996), which is hereby incorporated by reference in its entirety). […] It also provides strong evidence that the agonist activity in P. aeruginosa is LasR dependent.

RhlR = biological target: T2, RhlR (Pseudomonas aeruginosa, UniProt P54292); settings: 4-fold excess, in E. coli; cited from earlier work
T2 construct: an RhlR-AI2 controlled rhlI-gfp reporter, PAO-JP2 (prhlI-LVAgfp); endogenous in cells; host or cells: P. aeruginosa PAO-JP2 (prhlI-LVAgfp)
T2 sequence (P54292 whole entry): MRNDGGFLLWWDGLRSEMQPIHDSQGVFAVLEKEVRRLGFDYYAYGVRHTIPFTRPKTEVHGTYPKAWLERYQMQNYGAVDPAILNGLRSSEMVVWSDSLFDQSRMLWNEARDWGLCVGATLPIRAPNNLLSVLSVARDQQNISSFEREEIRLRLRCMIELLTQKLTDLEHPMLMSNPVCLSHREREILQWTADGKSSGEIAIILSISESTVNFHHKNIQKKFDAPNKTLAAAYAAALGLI

LasR [2] = biological target: T1, LasR; experiment: lasI-gfp reporter agonist assay, PAO-JP2 (plasI-LVAgfp); assay type: cell-based, P. aeruginosa; settings: PAO-JP2 (plasI-LVAgfp), compounds made in solution phase, increasing concentrations (1, 100, 400 μM)
Description: Since this strain lacks the ability to produce natural AIs due to disruption of both AI synthase genes, activation of LasR relies on the addition of exogenous AI1. Expression of gfp (encoding green fluorescent protein) is under control of the LasR-AI1 inducible lasI promoter, allowing rapid screening for LasR agonists by measuring the level of GFP expression in their presence.
(§1) P. aeruginosa strain PAO-JP2 (lasI, rhlI) (Rahme et al., Science 268:1899-1902 (1995), which is hereby incorporated by reference in its entirety) harboring plasI-LVAgfp (Pearson et al., Proc. Natl Acad. Sci. USA 91:197-201 (1994), which is hereby incorporated by reference in its entirety) was grown at 37° C. in LB with 300 μg/ml carbenicillin. For agonist assays, an overnight culture was diluted to an OD600 of 0.1 and transferred to wells of a 96-well plate on which test compounds had previously been added and dried. The final concentration of each analog tested was roughly 400 μM, although this is an overestimate due to purity issues. Cells were then incubated for 6 hours at 37° C. with vigorous shaking. GFP expression was detected with a Molecular Imager (BioRad) (488 nm excitation and 695 nm bandpass filter) and quantified with ImageQuant software. The OD600 of cultures was determined to normalize GFP expression to cell density.
(§2) Reporter strains were grown overnight in LB plus 300 μg/ml carbenicillin at 37° C. and diluted to an OD600 of 0.1. Following an incubation of 1 hour, 200 μl of cell culture was added to individual wells of a 96 well plate containing appropriate amount of test compound(s). Plates were incubated for 6 hours and then scanned for fluorescence emission with a Molecular Imager (488 nm excitation and 695 nm bandpass filter). Fluorescence was quantified with ImageQuant software.

pyocyanin [3] = experiment: pyocyanin assay, wild type strain PAO1; assay type: cell-based, P. aeruginosa PAO1; settings: wild type PAO1, no AIs added
Experimental: (§3) For the pyocyanin assay, cells were grown overnight in LB then washed in fresh media and diluted to an OD600 of 0.05. This culture was grown for 3-4 hours to mid-log phase (OD600 of 0.3-0.5), then diluted to an OD600 of 0.05, and aliquoted to test tubes containing an appropriate amount of test compound(s). Following 18 hours of growth, pyocyanin was extracted from filtered culture supernatants and quantified using standard methods (Essar et al., J. Bacteriol. 172:884-900 (1990), which is hereby incorporated by reference in its entirety).

P. aeruginosa = experiment: cell growth in the reporter assay; assay type: cell-based; settings: concentrations up to 400 μM
Experimental: Based on the above hypothesis, a competition assay of 2 and 3 against AI1, using strain PAO-JP2 (plasI-LVAgfp), was performed. […] It should be noted that this inhibition experiment was performed with competition against 1 μM AI1, a concentration typically produced by wild type P. aeruginosa (Pearson et al., Proc. Natl Acad. Sci. USA 92:1490-1494 (1995), which is hereby incorporated by reference in its entirety). […] It should also be noted that cell growth was not affected by the addition of 2 or 3 at concentrations up to 400 μM. Thus, it appears that compounds 2 and 3 act as specific inhibitors of QS controlled promoters. Compound 6 was also tested for its ability to compete against AI2, but no inhibition of the rhlI-gfp reporter gene was seen.

pyocyanin [4] = experiment: pyocyanin assay, strain PAO-JP2; assay type: cell-based, P. aeruginosa PAO-JP2; settings: PAO-JP2, 25 μM each of AI1 and AI2; not concentration dependent over the range tested
Experimental: as §3

Elastase B [5] = experiment: elastase (Elastin Congo Red) assay, strain PAO-JP2; assay type: cell-based, P. aeruginosa PAO-JP2; settings: PAO-JP2, 5 μM AI1 and 10 μM AI2
Experimental: (§4) Pyocyanin, elastase, and biofilm were assayed as previously described (Smith et al., Chem. Biol. 10:81-89 (2003), which is hereby incorporated by reference in its entirety). Elastase activity produced by P. aeruginosa in the presence of AIs and competing 3-oxo-C12-D10 was determined by measuring breakdown of the substrate Elastin Congo Red.
(§5) For the elastase B assay, cells (PAO-JP2) were grown overnight in PTSB media (5% Peptone, 0.1% Tryptic Soy Broth) at 37° C., washed and diluted to an OD600 of 0.05, grown to mid-log phase, washed again, and re-suspended to an OD600 of 0.05. The culture was then added to test tubes containing test compound(s) and grown for 6 hours. Elastase B activity was quantified by incubation of 100 μl of filtered culture supernatant with 5 mg Elastin Congo Red substrate and 1 ml of 10 mM Tris pH 7.2, 1 mM CaCl2 for 6 hours at 37° C. with agitation. Elastase B activity is represented by the OD495 of the enzyme assay following reaction quenching with EDTA and centrifugation to remove unreacted substrate, divided by the OD600 of the cell culture. The same assay was run with strain PAO-1, however no exogenous autoinducers were added.

LasR [6] = biological target: T1, LasR; experiment: lasI-gfp reporter antagonist (competition against AI1) assay, PAO-JP2 (plasI-LVAgfp); assay type: cell-based, P. aeruginosa; settings: 100-fold excess concentration over AI1 (1 μM AI1)
Experimental: as §1
The methods were the same as described in Example 2 (GFP Reporter Assay), except that 1 μM AI1 was added to each well in combination with the library compound. The fluorescence/OD600 of each compound competing against AI1 was reported relative to the fluorescence/OD600 of the positive control of AI1 alone, which was set to 1. When strain PAO-JP2 (prhlI-LVAgfp) was used, the positive control was 1 μM AI1 and 10 μM AI2. Eight compounds that inhibited reporter gene expression by greater than 50% were identified (see, e.g., FIG. 6).
as §2

Elastase B [7] = experiment: elastase (Elastin Congo Red) assay, wild type strain PAO1; assay type: cell-based, P. aeruginosa PAO1; settings: wild type PAO1, no exogenous autoinducers
Experimental: as §4, §5

O=C1C=C(Br)/C(=C/Br)O1 [furanone]
inhibition (antagonist activity) (lasB promoter): Approximately 50%

CCCCCCCCCC(=O)CC(=O)N[C@H]1CCOC1=O [AI1, N-(3-oxododecanoyl)-L-homoserine lactone, reference compound]
lasB-lacZ reporter activation (beta-galactosidase activity) (LasR [1]): activated | reduction of binding of AI2 to RhlR (RhlR): 86% | agonist activity (induction of lasI-gfp reporter) (LasR [2]): activated; also recorded: Strong QS induction

CCCCCCCCCC(=O)CC(=O)N[C@@H]1CCC[C@H]1O (racemic) [Compound 2, N-(trans-2-hydroxycyclopentyl)-3-oxododecanamide]
effect on pyocyanin production (pyocyanin [3]): no significant effect | effect on cell growth (P. aeruginosa): not affected | reduction of pyocyanin expression (pyocyanin [4]): 50% | effect on elastase activity (Elastase B [5]): no significant effect | inhibition of GFP expression (lasI-gfp) (LasR [6]): approximately 70% | effect on elastase activity (Elastase B [7]): no significant effect
